Laboratory results taken from patent US20210138077A1, “SELECTIVE DRUG RELEASE FROM INTERNALIZED CONJUGATES OF BIOLOGICALLY ACTIVE COMPOUNDS” (Seagen Inc., priority 2019, published 2021).
Non-standard residues stand in square brackets, D forms with d. No end group written: not given here. Met(O) = CS(=O)CC[C@H](N)C(=O)O; Cit = NC(=O)NCCC[C@H](N)C(=O)O

How the values were obtained:
[1] = system: tumor tissue homogenates derived from four mouse xenograft models (HPAF-II, Ramos, SK-Mel-5, SU-DHL-4); experiment: Fluorescence assay of tripeptide library: proteolysis by tumor tissue homogenate; assay type: biochemical; conditions: for Normalized Tumor Tissue / Normalized Tumor: normalized fluorescence; for Normalized Tumor Tissue: averaged across 4 tumor homogenates (HPAF-II, Ramos, SK-Mel-5, SU-DHL-4); for Normalized Tumor: averaged across 4 tumor homogenates
Protocol: (§1) Fluorescence assay. To a 384 well plate was added a mixture of tumor or normal tissue homogenate and citrate buffer (100 mM, pH 4.5; 9 μL) followed by a fluorescently labelled library compound (1 μL; dissolved in 50% MeCN). The reaction was incubated at 37° C. and fluorescence (330 nm excitation, 450 nm emission) was detected several times over a 6-hr. period. The fluorescence fold change was determined by dividing the fluorescence value at each time point with the background fluorescence when no homogenate was added.
(§2) Tissue Homogenization. Normal tissue or tumor tissue from mouse xenografts were suspended in buffer (50 mM Tris, 150 mM KCl, pH 7.0) and added to a tube containing Matrix D lysing beads (mpbio). The tissue was homogenized with a Precellys™ 24 homogenizer. The homogenized sample was centrifuged at 1000×g for 10 min and the resulting supernatant was collected then frozen at −80° C. until further use.
(§3) The library members were synthesized on cellulose support according to the method by Hilpert, K. et al. in “Peptide arrays on cellulose support: SPOT synthesis, a time and cost efficient method for synthesis of large numbers of peptides in a parallel and addressable fashion”, Nature Protocols (2007) 2(6): 1333-1349, the method of which is specifically incorporated by reference herein, with one important modification. That modification uses laser-perforated cellulose paper so that synthesis of each library member occurs with a clearly defined circular disc. After SPOT synthesis, each circular area, which separately contains a discrete library member, is punched out by a multichannel pipette into individual wells of a microtiter plate. The microtiter plate is then placed into an ammonia chamber to cleave the tripeptide containing model compounds from the cellulose discs. The cleaved compounds were then transferred to a fresh microtiter plate after solubilizing each into 50% aqueous acetonitrile. The contents of the wells were then assessed for susceptibility to proteolysis by tumor tissue homogenate in comparison to a comparator peptide-based drug linker compound having the dipeptide val-cit, which is replaced by the -[P1]-[P2]-[P3]-tripeptides in the library of drug linker compounds, by measuring the fluorescence found in each of the wells of the library after contacting with tumor or normal tissue homogenate and dividing it by the fluorescence found for tumor or normal tissue homogenate cleavage of the comparator dipeptide-containing drug linker compound.
The normalized fluorescence value for tumor homogenate proteolysis is an averaged value for tumor tissue homogenates derived from four mouse xenograft models. Calculation of those normalized values are described following Table 1A.
(§4) A normalized fluorescence value is calculated by dividing the fluorescence value at the final time point (275-315 min) from addition of a tissue homogenate by the fluorescence value when no tissue homogenate was added. That value was then normalized for each peptide in each homogenate by dividing it by the average value for that homogenate. […] The normalized tumor tissue values of Table 1 were then determined by averaging the normalized fluorescence value for each peptide across all 4 cancer homogenates that were tested. Those tumor homogenates were derived from xenograft models for HPAF-II (Nude mouse), Ramos (SCID mouse), SK-Mel-5 (Nude mouse) and SU-DHL-4 (SCID mouse). The normalized normal tissue values of Table 1 were similarly calculated using homogenized bone marrow. The Tumor/Normal ratios of Table 1A were determined by dividing the normalized tumor tissue values by the normalized normal tissue values.

[2] = system: normal human bone marrow homogenate; experiment: Fluorescence assay of tripeptide library: proteolysis by normal tissue homogenate; assay type: biochemical; conditions: for Normalized Normal Tissue: Table 1A, normalized fluorescence fold change at final time point (275-315 min), pH 4.5, 37° C.; for Normalized Normal: Table 1B, normalized fluorescence
Protocol: as §1, §2, §3
The normalized normal tissue fluorescence values are from proteolysis by normal human bone marrow. Human bone marrow was chosen as the normal tissue because it is the site of an adverse event (neutropenia) that has been associated with administering to a human subject in need thereof an effective amount of an Antibody Drug Conjugate having drug linker moieties derived from the Drug Linker compound m-val-cit-PABC-MMAE.
as §4

[3] = Table 1A, normalized tumor tissue value divided by normalized normal tissue value
[4] = Table 1B, normalized tumor value divided by normalized normal value

Substance | Normalized Tumor Tissue ([1]; Table 1A) | Tumor/Normal [1, 3] | Normalized Normal Tissue [2] | Normalized Tumor ([1]; Table 1B) | Tumor/Normal [1, 4] | Normalized Normal [2]
Ala-Cit-Cit | 2.58 | 2.53 | 1.02 |  |  | 
Cit-Cit-Cit | 2.82 | 2.52 | 1.12 |  |  | 
Cit-Glu-Cit | 3.16 | 2.61 | 1.21 |  |  | 
DLeu-Leu-Cit | 3.70 | 2.70 | 1.37 |  |  | 
Glu-Ala-Glu | 2.66 | 2.53 | 1.05 |  |  | 
Glu-Glu-[Cit] | 3.14 | 2.57 | 1.22 |  |  | 
Lys-Glu-[Met(O)] |  |  |  | 1.16 | 1.66 | 0.70
Pro-Ala-Glu | 2.48 | 3.16 | 0.78 |  |  | 
Pro-Ala-[Cit] | 3.03 | 2.84 | 1.07 |  |  | 
Pro-Cit-Cit | 2.54 | 2.67 | 0.95 |  |  | 
Pro-Glu-Ala |  |  |  | 1.28 | 1.84 | 0.70
Pro-Glu-Glu | 1.87 | 2.58 | 0.73 |  |  | 
Pro-Glu-Lys | 1.85 | 2.57 | 0.72 |  |  | 
Pro-Glu-[Cit] | 2.35 | 2.77 | 0.85 |  |  | 
Pro-Lys-Glu | 1.88 | 2.59 | 0.72 |  |  | 
Pro-[Cit]-Glu | 2.27 | 2.68 | 0.85 |  |  | 
Thr-Cit-Cit | 2.26 | 2.53 | 0.89 |  |  | 
[Cit]-Glu-Glu | 2.44 | 2.53 | 0.97 |  |  | 
[dL]-Ala-Lys |  |  |  | 1.16 | 1.70 | 0.68
[dL]-Glu-Lys |  |  |  | 1.06 | 1.71 | 0.62
[dL]-Leu-Glu | 3.45 | 3.09 | 1.12 |  |  | 
[dL]-Leu-Lys | 2.20 | 2.54 | 0.87 |  |  | 
[dL]-Leu-[Met(O)] | 1.70 | 2.58 | 0.66 | 1.70 | 2.58 | 0.66
[dL]-Phe-Glu | 2.27 | 2.55 | 0.89 |  |  | 
[dL]-[Cit]-Glu |  |  |  | 1.07 | 1.67 | 0.64
